From patent publication US20260007679A1, “METHODS OF TREATING CANCER USING 3-(4-((4-(MORPHOLINOMETHYL)BENZYL)OXY)-1-OXOISOINDOLIN-2-YL)PIPERIDINE-2,6-DIONE” (Celgene Corporation, priority 2012, published 2026)
One block for each compound: values may come before it.

What was measured:
[1] = system: NCI-H929 cells (Control, Revlimid-sensitive, parental); assay: Proliferation and viability by 7-AAD staining; format: cell-based; details: Homo sapiens, NCI-H929, 120 h; Control / parental H929; 5 days; read-out: IC50, proliferation
[2] = target: T1, endogeneous human CRBN (U266 extract) (Homo sapiens, UniProt Q96SW2); assay: Thalidomide affinity bead competition assay; format: binding
T1 construct: endogenous in cells; host or cells: U266 human multiple myeloma cells (NP-40 lysate)
Method: Affinity beads coupled to a thalidomide acid analog were incubated with the U266 extracts and, after extensive washing of the beads, the bound proteins were eluted. CRBN binding to the thalidomide-coupled affinity beads was determined by quantitative CRBN immunoblot determination.

H929 cells = assay: Cell cycle and protein expression in H929 cells; format: cell-based
[3] = system: Revlimid-resistant NCI-H929 R1-10; assay: Proliferation and viability by 7-AAD staining; format: cell-based; details: Homo sapiens, NCI-H929, 120 h; R1-10; 5 days; read-out: IC50, proliferation
DoHH2 FL cells = assay: 3 day 3H-thymidine incorporation assay; format: cell-based
[4] = system: lenalidomide resistant H929 subclones; assay: Proliferation and viability by 7-AAD staining; format: cell-based
Method: The Revlimid-resistant or -sensitive cell lines were treated with test compounds for 5 days, and then cell proliferation and viability were assessed by 7-aminoactinomycin D (7-AAD) staining.
CRBN ubiquitination was measured in HEK293T cells, which were transfected with an amino-terminal His-biotin-tagged CRBN construct, then preincubated with compounds for one hour followed by treatment with the MG132 proteasome inhibitor (to arrest degradation of ubiquitinated proteins). Cells were lysed and processed to measure CRBN ubiquitination by SDS-PAGE and immunoblot analysis using an anti-ubiquitin antibody. Cell proliferation studies were conducted in lenalidomide-sensitive and refractory multiple myeloma cells. […] T-cell costimulation was measured in purified primary human T cells stimulated using immobilized anti-CD3 antibody in cell culture for 2 days, and cytokine secretion was measured by ELISA.

[5] = system: Revlimid-resistant NCI-H929 R4-10; assay: Proliferation and viability by 7-AAD staining; format: cell-based; details: Homo sapiens, NCI-H929, 120 h; R4-10; 5 days; read-out: IC50, proliferation
[6] = system: Revlimid-resistant NCI-H929 R3-10; assay: Proliferation and viability by 7-AAD staining; format: cell-based; details: Homo sapiens, NCI-H929, 120 h; R3-10; 5 days; read-out: IC50, proliferation
Farage DLBCL cells = assay: 3 day 3H-thymidine incorporation assay; format: cell-based
OCI-Ly3 = assay: 5 day 3H thymidine incorporation; format: cell-based; details: Homo sapiens, ABC subtype
Method: (§1) Cells were treated with the tested compound for 5 days at 37° C.; proliferation of cells was determined using ^3H-thymidine incorporation method.

OCI-Ly19 = assay: 5 day 3H thymidine incorporation; format: cell-based; details: Homo sapiens, GCB subtype
Method: as §1

OCI-Ly10 = assay: 5 day 3H thymidine incorporation; format: cell-based; details: Homo sapiens, ABC subtype
Method: as §1

SUDHL4 = assay: 5 day 3H thymidine incorporation; format: cell-based; details: Homo sapiens, SU-DHL-4; GCB subtype
Method: as §1

WSU-DLCL2 = assay: 5 day 3H thymidine incorporation; format: cell-based; details: Homo sapiens, WSUDLCL2; GCB subtype
Method: as §1

RIVA = assay: 5 day 3H thymidine incorporation; format: cell-based; details: ABC subtype
Method: as §1

U2932 = assay: 5 day 3H thymidine incorporation; format: cell-based; details: Homo sapiens, ABC subtype
Method: as §1

TMD8 = assay: 5 day 3H thymidine incorporation; format: cell-based; details: Homo sapiens, ABC subtype
Method: as §1

Karpas-1106P = assay: 5 day 3H thymidine incorporation; format: cell-based; details: Homo sapiens, PMBL
Method: as §1

[7] = system: Revlimid-resistant NCI-H929 R2-10; assay: Proliferation and viability by 7-AAD staining; format: cell-based; details: Homo sapiens, NCI-H929, 120 h; R2-10; 5 days; read-out: IC50, proliferation
DoHH2 cell line = assay: Apoptosis analysis (annexin-V); format: cell-based
Method: Apoptosis Analysis: Cells were treated with DMSO or an amount of a compound provided herein at various time points, then washed with annexin-V wash buffer (BD Biosciences). Cells were incubated with annexin-V binding protein and propidium iodide (BD Biosciences) for 10 minutes. Samples were analyzed using flow cytometry.

[8] = system: blood vessel growth in Matrigel plugs; assay: Mouse Matrigel angiogenesis model; format: in vivo, C57B/6 mice; details: 3 and 30 mpk; 10 days
Method: Mouse Matrigel Angiogenesis model was conducted as follows: Matrigel plugs with rhVegf, rhbFGF and heparin were inserted into C57B/6 mice for 10 days with drug treatment. Plugs were analyzed for ms CD31 by IHC.

NFκB p65 and p50 = assay: NFκB activity in DLBCL cells (Active Motif transcription factor assay); format: cell-based; details: 1 μM and 10 μM; 2 days; ABC-DLBCL lines such as TMD8 and OCI-Ly10
Method: DLBCL cells were treated with test compound or an IKK1/2 dual inhibitor (used as a positive inhibitor control) for 2 days. NFκB activity was examined with Active Motif transcription factor assay using nuclear extracts from cells following treatment.

[9] = system: WSU-DLCL2 DLBCL xenograft; assay: WSU-DLCL2 DLBCL xenograft model

binding to CRBN [2]: binds to endogeneous human CRBN
IC50 [3]: 1320 nM
IC50 ([4]; Homo sapiens, NCI-H929, 120 h, read-out: IC50 for inhibition of proliferation): 510 to 1580 nM
IC50 [5]: 1580 nM
IC50 [6]: 510 nM
IC50 (OCI-Ly3): > 10000 nM
IC50 (OCI-Ly19): > 10000 nM
IC50 (OCI-Ly10): 0.9 nM
IC50 (SUDHL4): 1600 nM
IC50 (WSU-DLCL2): 240 nM
IC50 (RIVA): 2300 nM
IC50 (U2932): 5 nM
IC50 (TMD8): 59 nM
IC50 (Karpas-1106P): 280 nM
IC50 [7]: 1200 nM
SMILES: O=C1CC[C@H](N2Cc3c(OCc4ccc(CN5CCOCC5)cc4)cccc3C2=O)C(=O)N1 [Compound I-S, (S)-3-(4-((4-(morpholinomethyl)benzyl)oxy)-1-oxoisoindolin-2-yl)piperidine-2,6-dione]
IC50 [1]: 10 nM
expression of cyclin-dependent kinase inhibitor p27 (H929 cells; 48 hours): increased
expression of retinoblastoma protein (pRB) (H929 cells; 48 hours): decreased
expression of survivin (H929 cells; 48 hours): decreased
decrease in cell cycle (S-phase) (H929 cells; after 24 hours of treatment): 50%
IC50 (DoHH2 FL cells; Homo sapiens, DOHH-2, 72 h, 3 day, read-out: anti-proliferative IC50): 40 nM
combination effect, fractional product method (DoHH2 FL cells; combined with Rituxan): synergistic manner
activity against Revlimid-resistant cell lines [4]: active
IC50 (Farage DLBCL cells; Farage, 72 h, 3 day, read-out: anti-proliferative IC50): 280 nM
combination effect, fractional product method (Farage DLBCL cells; combined with Rituxan): additive to synergistic manner

SMILES: O=C1CCC(N2Cc3c(OCc4ccc(CN5CCOCC5)cc4)cccc3C2=O)C(=O)N1 (racemic) [Compound I, 3-(4-((4-(morpholinomethyl)benzyl)oxy)-1-oxoisoindolin-2-yl)piperidine-2,6-dione]
apoptosis induction and live cell number reduction in combination (DoHH2 cell line; combined with Rituxan): additive manner
apoptosis and cell numbers (DoHH2 cell line; single agent): induced apoptosis
blood vessel growth (ms CD31 IHC) [8]: significantly inhibits
NFκB p65 and p50 activity (NFκB p65 and p50): significantly inhibits
Tumor Free Survival on Day 44 ([9]; 3 mg/kg in combination with Rituxan 2 mg/kg iv qw): 6/10
Tumor Free Survival on Day 44 ([9]; 30 mg/kg in combination with Rituxan 2 mg/kg iv qw): 6/10
tumor response in combination with Rituxan ([9]; all combination treatment groups, complete regression = tumor volume <25 mm^3): complete regression
